Measurements taken from patent US7563774B2, “Combination of FBPase inhibitors and antidiabetic agents useful for the treatment of diabetes” (Metabasis Therapeutics, Inc., priority 2000, dated 2009).
Like-named read-outs stand apart in the source and are kept apart here.

Assays:
[1] = test system: Sprague-Dawley or Wistar rats; details: fasted rat, cited from earlier work; for ED50: 2 h
[2] = test system: Goto-Kakizaki rats; assay: Acute combination treatment of an alpha glucosidase inhibitor and an FBPase inhibitor in Goto-Kakizaki rats (Example EE); type: in vivo, rat
Experimental: Goto-Kakizaki rats, an animal model of lean NIDDM, were purchased at 5 weeks of age from Charles River Japan, Inc. (Tokyo, Japan). The rats were maintained under standard vivarium conditions (24-26° C., 12-hour light cycle, 12-hour dark cycle) and received standard chow and water ad libitum. At 18 weeks of age, animals were divided into 4 groups (n=5/group). The treatment groups were control, Compound J, acarbose (Bayer, Japan), and the combination of Compound J and acarbose. All animals were given 1 g/kg of corn starch by oral gavage. […] Acarbose was administered orally at a dose of 1 mg/kg simultaneously with starch. Blood glucose levels in tail vein samples were measured by means of a Glucoloader-F, an automatic glucose analyzer, (A&T Co., Ltd., Tokyo, Japan).

[3] = test system: C57BL/KsJ db/db mice; assay: Acute combination treatment of a biguanide and an FBPase inhibitor in db/db mice (Example DD); type: in vivo, mouse
Experimental: Male C57BL/KsJ db/db mice were purchased at 5 weeks of age from Clea Japan, Inc. (Tokyo, Japan). The mice were maintained under standard vivarium conditions (24-26° C., 12-hour light cycle, 12-hour dark cycle) and received standard chow and water ad libitum. […] The treatment groups were control, compound J , metformin, and the combination of compound J and metformin. […] Food was removed after treatment. Blood glucose levels in tail vein samples were measured by means of a Glucoloader-F, an automatic glucose analyzer, (A&T Co., Ltd., Tokyo, Japan).

[4] = test system: Zucker Diabetic Fatty rats; assay: Acute combination treatment of an insulin secretagogue and Compound J in the ZDF rat (Example X); type: in vivo
Experimental: Experimental Protocol: Zucker Diabetic Fatty rats (9.5 weeks of age) were fasted for 5 hours starting at 8 am. The animals were then divided into 4 treatments groups with statistically similar baseline blood glucose levels. Test compounds were administered by oral gavage. The treatments were as shown below:
One hour after saline or drug administration, all animals received a simulated meal in the form of an oral bolus of glucose (1 g/kg). Blood glucose was then monitored at regular time intervals for 3 hours. Test compounds were prepared as suspensions in 0.1% carboxymethylcellulose. Blood samples were obtained by nicking of a tail vein. Blood glucose was measured by means of a HemoCue glucose analyzer according to the manufacturer's instructions (HemoCue Inc., Mission Viejo, Calif.). Results are expressed as the mean ± standard error of the mean for all values.

[5] = test system: ZDF rats; assay: Chronic combination treatment of an insulin secretagogue and an FBPase inhibitor in the ZDF rat (Example Y); type: in vivo; details: maximal doses, 2 to 12 weeks
Description: Male ZDF rats are purchased at 7 weeks of age from Genetics Models Inc. (Indianapolis, Ind.). […] At 8 weeks of age, animals are divided into 4 treatment groups (n=8/group). The treatments are control, Compound J, glyburide, and the combination of Compound J and glyburide. […] Other parameters measured by standard assays include: lactate, glycerol, alanine, triglycerides, free fatty acids, ketone bodies, hepatic and muscle glycogen, cholesterol, VLDL, HDL, hemoglobin Alc, body weight, food and water intake, as well as other measures of carbohydrate, lipid, and protein metabolism. […] Differences between groups are evaluated ANOVA using an appropriate post hoc test. Results are considered significant with p<0.05.

[6] = test system: C57BL/KsJ db/db mice; assay: Acute combination treatment of insulin and Compound G in db/db mice (Example Z); type: in vivo, mouse
Experimental: Male C57BL/KsJ db/db mice were purchased at 5 weeks of age from Clea Japan, Inc. (Tokyo, Japan). The mice were maintained under standard vivarium conditions (24-26° C., 12-hour light cycle, 12-hour dark cycle) and received standard chow and water ad libitum. At 20 weeks of age, animals were divided into 4 groups (n=6/group). The treatment groups were control, compound G, insulin, and the combination of compound G and insulin. […] Insulin (human recombinant insulin, Penfill R300, Novo Nordisk, Denmark) was injected subcutaneously at a dose of 1.5 U/kg. Food was removed after treatment. Blood glucose levels in tail vein samples were measured by means of a Glucoloader-F, an automatic glucose analyzer, (A&T Co., Ltd., Tokyo, Japan).

[7] = test system: C57BL/KsJ db/db mice; assay: Chronic combination treatment of insulin and Compound G in db/db mice (Example AA); type: in vivo, mouse
Experimental: Male C57BL/KsJ db/db mice were purchased at 5 weeks of age from Clea Japan, Inc. (Tokyo, Japan). The mice were maintained under standard vivarium conditions (24-26° C., 12-hour light cycle, 12-hour dark cycle) and received standard chow and water ad libitum. At 16 weeks of age, animals were divided into 2 groups (n=5 or 9-10/group). Both groups were subcutaneously injected with human recombinant insulin (Penfill N300, Novo Nordisk, Denmark) on a daily basis to adjust plasma glucose levels to the target range of 250 to 300 mg/dL.

[8] = test system: C57BL/KsJ db/db mice; assay: Chronic combination treatment of insulin and Compound J in db/db mice (Example BB); type: in vivo, mouse
Experimental: Male C57BL/KsJ db/db mice were purchased at 5 weeks of age from Clea Japan, Inc. (Tokyo, Japan). […] At 19 weeks of age, animals were divided into 2 groups (n=6/group). […] Blood glucose levels in tail vein samples were measured by means of a Glucoloader-F, an automatic glucose analyzer, (A&T Co., Ltd., Tokyo, Japan).

[9] = test system: Goto-Kakizaki (GK) rats; assay: Acute combination treatment of insulin and an FBPase inhibitor in the Goto-Kakizaki rat (Example CC); type: in vivo
Experimental: Male Goto-Kakizaki (GK) rats were purchased at 9 weeks of age from Charles River Japan, Inc. (Tokyo, Japan). The rats were maintained under standard vivarium conditions (24-26° C., 12-hour light cycle, 12-hour dark cycle) and received standard chow and water ad libitum. At 48 weeks of age, animals were divided into 4 groups (n=6/group) after an overnight fast. The treatment groups were control, Compound J, insulin, and combination of Compound J and insulin. […] Insulin (human recombinant insulin, Penfill N300, Novo Nordisk, Denmark) was subcutaneously injected at the dose of 1.5 U/kg. Blood glucose levels in tail vein samples were measured by means of a Glucoloader-F, an automatic glucose analyzer, (A&T Co., Ltd., Tokyo, Japan).

CCOc1cc(CC(=O)N[C@@H](CC(C)C)c2ccccc2N2CCCCC2)ccc1C(=O)O [Repaglinide]
ED50 [1]: 0.01 (2 h) mg/kg | Gluc low,% ([1]; Dose 0.01): −21%

C[C@H]1O[C@H](O[C@H]2[C@H](O)[C@@H](O)[C@@H](O[C@H]3[C@H](O)[C@@H](O)C(O)O[C@@H]3CO)O[C@@H]2CO)[C@H](O)[C@@H](O)[C@@H]1N[C@H]1C=C(CO)[C@@H](O)[C@H](O)[C@H]1O (some centres unmarked) [Acarbose, acarbose, reference compound]
Plasma Glucose, relative value (% of pre-treatment value) ([2]; 0 min): (129.4 +/− 2.8) % | Plasma Glucose ([2]; 0 min, Compound J 10 mg/kg p.o. at −60 min, acarbose 1 mg/kg p.o. with starch): 226.4 ± 5.3 mg/dL | Plasma Glucose ([2]; 30 min after starch): 243.8 ± 8.5 mg/dL | Plasma Glucose, relative value (% of pre-treatment value) ([2]; 30 min after starch): (139.5 +/− 6.0) % | Plasma Glucose ([2]; 60 min after starch): 247.2 ± 8.2 mg/dL | Plasma Glucose, relative value (% of pre-treatment value) ([2]; 60 min after starch): (141.3 +/− 4.9) % | Plasma Glucose ([2]; 120 min after starch): 209.4 ± 5.9 mg/dL | Plasma Glucose, relative value (% of pre-treatment value) ([2]; 120 min after starch): (119.9 +/− 4.9) % | Plasma Glucose ([2]; 240 min after starch): 164.2 ± 10.7 mg/dL | Plasma Glucose, relative value (% of pre-treatment value) ([2]; 240 min after starch): (93.5 +/− 4.7) % | Plasma Glucose, relative value (% of pre-treatment value) ([2]; −60 min): (100.0 +/− 0.0) % | Plasma Glucose ([2]; −60 min relative to starch 1 g/kg): 175.4 ± 5.9 mg/dL

CN(C)C(=N)N=C(N)N [Metformin, metformin, reference compound]
Plasma Glucose, % of pretreatment value ([3]; after 2 hour): (67.7 +/− 1.9) % | Plasma Glucose ([3]; after 2 hour, Compound J and/or metformin 150 mg/kg p.o.): 347.0 ± 21.2 mg/dL | Plasma Glucose ([3]; after 4 hour): 346.5 ± 34.6 mg/dL | Plasma Glucose, % of pretreatment value ([3]; after 4 hour): (66.4 +/− 3.1) % | Plasma Glucose ([3]; after 6 hour): 348.3 ± 30.7 mg/dL | Plasma Glucose, % of pretreatment value ([3]; after 6 hour): (67.7 +/− 4.1) % | Plasma Glucose ([3]; after 8 hour): 407.8 ± 40.0 mg/dL | Plasma Glucose, % of pretreatment value ([3]; after 8 hour): (79.1 +/− 5.6) % | Plasma Glucose ([3]; before (0 hour)): 515.7 ± 37.0 mg/dL | Plasma Glucose, % of pretreatment value ([3]; before (0 hour)): (100.0 +/− 0.0) % | blood glucose lowering ([3]; db/db mice, acute): lowered blood glucose significantly relative to controls

COc1ccc(Cl)cc1C(=O)NCCc1ccc(S(=O)(=O)NC(=O)NC2CCCCC2)cc1 [Glyburide, glyburide, reference compound]
blood glucose after oral glucose load (FIG. 1) ([4]; glyburide 100 mg/kg, Compound J 300 mg/kg p.o.): suppressed the rise in blood glucose levels | AUC glucose ([4]; initial 4 hours post drug, glyburide 100 mg/kg, Compound J 300 mg/kg p.o., oral glucose 1 g/kg): 1324 ± 132 mg·h/dL | maximally efficacious dose ([4]; pilot studies, ZDF rat): 100 mg/kg | glycemic control [5]: becomes less and less effective over time | ED50 [1]: 0.255 (2 h) mg/kg | Gluc low,% ([1]; Dose 0.3): −25%

Insulin: human recombinant insulin, Penfill R300 (Example Z) or Penfill N300 (Examples AA, BB, CC), Novo Nordisk
Plasma Glucose, % of pretreatment values ([6]; after 1 hour): (54.2 +/− 4.1) % | Plasma Glucose ([6]; after 1 hour, Compound G 200 mg/kg p.o., insulin 1.5 U/kg s.c.): 410.8 ± 34.4 mg/dL | Plasma Glucose ([6]; after 4 hours): 540.3 ± 35.9 mg/dL | Plasma Glucose, % of pretreatment values ([6]; after 4 hours): (71.4 +/− 4.1) % | Plasma Glucose ([6]; after […]): 463.2 ± 40.2 mg/dL | Plasma Glucose, % of pretreatment values ([6]; after […]): (61.1 +/− 4.9) % | Plasma Glucose ([6]; before (0 hour)): 756.2 ± 15.2 mg/dL | Plasma Glucose, % of pretreatment values ([6]; before (0 hour)): (100.0 +/− 0.0) % | plasma glucose lowering ([6]; db/db mice, acute): improved hyperglycemia within 2.5 hours | Body Weight ([7]; after 1 week): 50.7 ± 1.5 g | Insulin Dose required to adjust plasma glucose to 250-300 mg/dL ([7]; after 1 week): 753 +/− 72 U/kg | Plasma Glucose ([7]; after 1 week, insulin adjusted daily, Compound G 0.2% food admixture): 297.1 ± 46.0 mg/dL | Body Weight ([7]; after 2 weeks): 54.3 ± 1.2 g | Insulin Dose required to adjust plasma glucose to 250-300 mg/dL ([7]; after 2 weeks): 492 +/− 68 U/kg | Plasma Glucose ([7]; after 2 weeks): 375.6 ± 53.5 mg/dL | Body Weight ([7]; after 3 weeks): 57.4 ± 1.6 g | Insulin Dose required to adjust plasma glucose to 250-300 mg/dL ([7]; after 3 weeks): 306 +/− 67 U/kg | Plasma Glucose ([7]; after 3 weeks): 282.4 ± 43.1 mg/dL | Body Weight ([7]; before (0 week)): 43.4 ± 2.2 g | Insulin Dose required to adjust plasma glucose to 250-300 mg/dL ([7]; before (0 week)): 548 +/− 18 U/kg | Plasma Glucose ([7]; before (0 week)): 736.5 ± 17.0 mg/dL | body weight increase ([7]; db/db mice, 3 weeks): increased body weight remarkably | Body Weight ([8]; after 1 week): 57.9 ± 1.3 g | Insulin Dose required to achieve target blood glucose levels ([8]; after 1 week): 495 +/− 32 U/kg | Plasma Glucose ([8]; after 1 week, insulin adjusted daily, Compound J 0.2% food admixture): 408.8 ± 15.3 mg/dL | Body Weight ([8]; after 2 weeks): 59.7 ± 1.3 g | Insulin Dose required to achieve target blood glucose levels ([8]; after 2 weeks): 699 +/− 63 U/kg | Plasma Glucose ([8]; after 2 weeks): 447.7 ± 17.6 mg/dL | Body Weight ([8]; after 3 weeks): 61.4 ± 1.2 g | Insulin Dose required to achieve target blood glucose levels ([8]; after 3 weeks): 760 +/− 95 U/kg | Plasma Glucose ([8]; after 3 weeks): 396.3 ± 39.3 mg/dL | Body Weight ([8]; after 4 weeks): 64.2 ± 1.0 g | Insulin Dose required to achieve target blood glucose levels ([8]; after 4 weeks): 802 +/− 129 U/kg | Plasma Glucose ([8]; after 4 weeks): 316.7 ± 17.2 mg/dL | Body Weight ([8]; before (0 week)): 54.9 ± 1.4 g | Insulin Dose required to achieve target blood glucose levels ([8]; before (0 week)): 0 +/− 0 U/kg | Plasma Glucose ([8]; before (0 week)): 617.2 ± 28.1 mg/dL | body weight gain ([8]; db/db mice, 4 weeks of treatment): resulted in an increase in body weight | plasma glucose lowering ([9]; GK rats, acute): decreased plasma glucose within 2 hours | Plasma Glucose, % of before ([9]; after 2 hour): (55.0 +/− 11.0) % | Plasma Glucose ([9]; after 2 hour, Compound J 50 mg/kg p.o., insulin 1.5 U/kg s.c.): 88.8 ± 16.8 mg/dL | Plasma Glucose ([9]; after 4 hours): 71.3 ± 20.9 mg/dL | Plasma Glucose, % of before ([9]; after 4 hours): (43.9 +/− 13.3) % | Plasma Glucose ([9]; after 6 hours): 90.7 ± 19.7 mg/dL | Plasma Glucose, % of before ([9]; after 6 hours): (55.4 +/− 12.4) % | Plasma Glucose ([9]; before (0 hour)): 163.7 ± 5.8 mg/dL | Plasma Glucose, % of before ([9]; before (0 hour)): (100.0 +/− 0.0) %

CCC1=C(C)CN(C(=O)NCCc2ccc(S(=O)(=O)NC(=O)N[C@H]3CC[C@H](C)CC3)cc2)C1=O [Glimepiride]
ED50 [1]: 0.182 (2 h) mg/kg | Gluc low,% ([1]; Dose 0.1): −18%
